Assay results reported in patent US12338443B2, “Photoactivatable Tet expression control system” (JAPAN SCIENCE AND TECHNOLOGY AGENCY, priority 2018, dated 2025).

T1: CIB1 (Arabidopsis thaliana, UniProt Q8GY61)
T1 sequence (Q8GY61 1-335): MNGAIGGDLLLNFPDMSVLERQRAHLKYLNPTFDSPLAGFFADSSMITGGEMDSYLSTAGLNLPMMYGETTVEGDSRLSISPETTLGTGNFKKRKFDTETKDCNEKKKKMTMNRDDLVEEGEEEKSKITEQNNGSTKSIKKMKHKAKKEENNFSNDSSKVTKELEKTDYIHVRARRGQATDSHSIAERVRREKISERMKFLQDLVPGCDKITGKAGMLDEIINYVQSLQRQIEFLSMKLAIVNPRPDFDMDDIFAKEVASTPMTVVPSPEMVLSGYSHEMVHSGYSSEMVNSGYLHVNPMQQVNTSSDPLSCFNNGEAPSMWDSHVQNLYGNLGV

B1: Cry2: Arabidopsis thaliana Cryptochrome 2 photoreceptor binding CIB1 in a blue light-specific manner (protein)
chain: MKMDKKTIVWFRRDLRIEDNPALAAAAHEGSVFPVFIWCPEEEGQFYPGRASRWWMKQSLAHLSQSLKALGSDLTLIKTHNTISAILDCIRVTGATKVVFNHLYDPVSLVRDHTVKEKLVERGISVQSYNGDLLYEPWEIYCEKGKPFTSFNSYWKKCLDMSIESVMLPPPWRLMPITAAAEAIWACSIEELGLENEAEKPSNALLTRAWSPGWSNADKLLNEFIEKQLIDYAKNSKKVVGNSTSLLSPYLHFGEISVRHVFQCARMKQIIWARDKNSEGEESADLFLRGIGLREYSRYICFNFPFTHEQSLLSHLRFFPWDADVDKFKAWRQGRTGYPLVDAGMRELWATGWMHNRIRVIVSSFAVKFLLLPWKWGMKYFWDTLLDADLECDILGWQYISGSIPDGHELDRLDNPALQGAKYDPEGEYIRQWLPELARLPTEWIHHPWDAPLTVLKASGVELGTNYAKPIVDIDTARELLAKAISRTREAQIMIGAAPDEIVADSFEALGANTIKEPGLCPSVSSNDQQVPSAVRYNGSKRVKPEEEEERDMKKSRGFDERELFSTAESSSSSSVFFVSQSCSLASEGKNLEGIQDSSDQITTSLGKNGCK
modifications: Cry2

Key:
[1] = system: pTREtight-Ub-ELuc reporter in HEK293T cells; assay: Relationship between Dox concentration and induced gene expression level (FIG. 7); format: cell-based, human
Description: In order to analyze the relationship between the Dox concentration and the induced gene expression level, HEK293T cells were seeded in a 24-well plate at 5 to 9×10^4 cells/well, transfected, and assayed in the same manner as in candidate construct screening. Dox was applied to the cells at concentrations of 0, 1, 7.5, 15, 20, 50, and 100 ng/mL for the PA-Tet-OFF constructs and at concentrations of 0, 10, 15, 20, 30, 35, 40, 50, 75, 100, and 250 ng/mL for the PA-Tet-ON constructs. The cells were irradiated with blue light (7.2 W/m^2; pulsed for 2 seconds every minute) for 3 hours.
In addition, for the PA-Tet-OFF system using the PA-Tet-OFF-T2A construct and the PA-Tet-independent system using the PA-Tet-H100Y construct, the influence of DOx concentration on the PA-Tet-controlled expression efficiency was investigated. Furthermore, for the PA-Tet-ON system using a construct obtained by introducing a V10 mutation into the PA-Tet-OFF-T2A construct (PA-Tet-ON-T2A construct), the influence of Dox concentration on the PA-Tet-controlled expression efficiency was investigated. The data represent mean±standard deviation (n=3) obtained from one experiment. In FIGS. 7(A) and 7(B), “*” means p<0.05 (paired student's t-test).

[2] = system: brain neurons of mouse pups; assay: Light- and Dox-dependent luciferase expression in brain neurons of mouse pups; format: in vivo; details: PA-Tet-OFF system; after single dosing of Dox 0.1 mg/g
Description: For irradiating the brains of mouse pups with light, anesthetized mice were stimulated through an optical fiber using a blue LED (PLEXBRIGHT®, manufactured by Plexon Inc). After being irradiated with blue light (40 W/m^2; pulsed for 1 second every 15 seconds; continued for 3 hours), the mice were immediately sacrificed, the right brain irradiated with blue light was immediately extracted and lysed, and the luciferase activity thereof was measured.
The mice were treated with Dox. For long-term Dox administration, drinking water containing 1 mg/mL Dox in a 5% by mass sucrose solution was given to the mice. […]
Next, Dox-dependent inhibition of transcriptional activity of the PA-Tet-OFF system in brain neurons was analyzed. […] The luminescence signal intensity induced by the luciferase expression in the brain cells after the light irradiation treatment was measured. Furthermore, for mice treated with Dox (0.1 mg/g (body weight)) 1 hour before the light irradiation treatment, the luminescence signal intensity was also measured in the same manner. In the mouse brain neurons (represented by “Light” in FIG. 25) subjected to the light irradiation treatment, luciferase expression was activated, and the luminescence signal intensity increased. […]
Furthermore, the restoration of light-inducible transcriptional activity after removal of Dox was analyzed in cells transfected with the PA-Tet-OFF system. […]

[3] = system: pTREtight-Ub-ELuc reporter in HEK293T cells; assay: Relationship between Dox concentration and gene expression induction, near-infrared light (Table 9); format: cell-based, human; design: scale not given here; details: 25 μM BV; for Light: near-infrared light 750 nm
Description: Next, for QT4, QT7 and QT8 constructs, the relationship between Dox concentration and gene expression induction was investigated. Specifically, the relationship was investigated in the same manner as in “Functional screening of PA-Tet-OFF candidate constructs” described above, except that HEK293T cells were seeded in a 24-well plate at 6×10^4 cells/well, the medium was replaced with a medium containing 25 μM BV and having Dox concentration described in Table 9 6 hours after transfection, the cells were irradiated with near-infrared light (750 nm, 4.0 mW/cm^2) for 42 hours by being exposed to light for 30 seconds every 180 seconds, and a 750 nm LED (SMBB750D-1100, manufactured by Ushio Inc.) was used as a light source. All experiments were performed in 3 independent trials (3 batches) to obtain consistent results.

[4] = system: pTREtight-Ub-ELuc reporter in HEK293T cells; assay: PA-Tet-independent / PA-Tet-ON construct luciferase assay with or without Dox (Example 3, Table 5); format: cell-based, human; details: first batch; for An initial construct screening result: Light (relative luminescence signal intensity): blue light
Description: For each construct, a plasmid containing the expression cassette was introduced into HEK293T cells together with a pTREtight-Ub-ELuc reporter, thereby obtaining transformed cells. These cells were irradiated with blue light in the absence of Dox or in the presence of Dox, and the light-dependent transcriptional activity of Ub-ELuc was investigated. All experiments were performed in 3 independent trials (3 batches) to obtain consistent results.

CIB1 = target: T1, CIB1; details: after light activation; cited from earlier work

Molecule	Light ([3]; Dox 0 ng/mL)	Dark ([3]; Dox 1.0 ng/mL)	Light ([3]; Dox 1.0 ng/mL)	Dark ([3]; Dox 2.0 ng/mL)	Light ([3]; Dox 2.0 ng/mL)	Light ([3]; Dox 3.0 ng/mL)	Dark ([3]; Dox 4.0 ng/mL)	Light ([3]; Dox 4.0 ng/mL)	Dark ([3]; Dox 5.0 ng/mL)	Light ([3]; Dox 5.0 ng/mL)	Dark ([3]; Dox 10.0 ng/mL)	Light ([3]; Dox 10.0 ng/mL)	also measured
C[C@H]1c2cccc(O)c2C(=O)C2=C(O)[C@]3(O)C(=O)C(C(N)=O)=C(O)[C@@H](N(C)C)[C@@H]3[C@@H](O)[C@@H]21 [Dox, doxycycline]	–	–	–	–	–	–	–	–	–	–	–	–	extremely low Dox concentration at which the effect brought about by Dox was observed ([1]; PA-Tet-OFF system): 1 ng/mL; extremely low Dox concentration at which the effect brought about by Dox was observed ([1]; PA-Tet-ON system): 10 ng/mL; duration of inhibition of light-induced luciferase expression [2]: 4 days
QT4: TetR(I194T)-SPKKK-HMEF-RpBphP1 + 2xNLS-p65AD-HMEF-Q-PAS1 (SEQ ID NO: 26, 27)	17.7	0.2	0.2	–	–	–	–	–	–	–	–	–	Light ([3]; Dox 0.025 ng/mL): 20.6; Light ([3]; Dox 0.050 ng/mL): 10.7; Dark ([3]; Dox 0.100 ng/mL): 0.5; Light ([3]; Dox 0.100 ng/mL): 10.1; Dark ([3]; Dox 0.200 ng/mL): 0.3; Light ([3]; Dox 0.200 ng/mL): 2.9; Dark ([3]; Dox 0.500 ng/mL): 0.2
QT7: RpBphP1-TSTR-TetR(I194T) + p65AD-HMEF-Q-PAS1 (SEQ ID NO: 28, 29)	53.7	2.9	29.9	2.7	34.7	25.0	1.3	17.6	1.6	16.4	0.3	3.7	–
QT8: RpBphP1-TSTR-TetR(I194T) + 2xNLS-p65AD-HMEF-Q-PAS1 (SEQ ID NO: 28, 27)	152.0	14.5	143.1	17.1	112.2	108.7	15.1	86.8	15.2	63.9	3.1	7.2	Dark ([3]; Dox 3.0 ng/mL): 16.0
T86: TetR(I194T)-SPKKK-CIBN no NLS + Cry2 PHR (L348F)-p65 AD-NLSx2 (Element #1 SEQ ID NO: 5, Element #2 SEQ ID NO: 6) [Construct T86]	–	–	–	–	–	–	–	–	–	–	–	–	An initial construct screening result: Light (relative luminescence signal intensity) ([4]; Dox 0 ng/mL): 12.3; An initial construct screening result: Light (relative luminescence signal intensity) ([4]; Dox 75 ng/mL): 0.1; An initial construct screening result: Dark (relative luminescence signal intensity) ([4]; Dox 75 ng/mL, dark): 0.1
B1	–	–	–	–	–	–	–	–	–	–	–	–	half-life of spontaneous dissociation from CIB1 (CIB1): about 5.5 minutes
